Results as given in patent publication US12492197B2, “3,5-disubstituted pyrazole compounds as kinase inhibitors and uses thereof” (IMPACT THERAPEUTICS (SHANGHAI), INC, priority 2019, dated 2025).

How the values were obtained:
[1] = biological target: T1, CHK1 kinase (Homo sapiens, UniProt O14757); assay: CHK1 kinase inhibition, ADP-Glo kinase assay; assay type: biochemical; conditions: compound concentration 10 nM; ATP 10 μM; CHK1 1 ng/well; read-out: Inh % (inhibitory effect on CHK1 kinase activity)
T1 construct: purchased Promega V1941
T1 sequence (O14757 1-476): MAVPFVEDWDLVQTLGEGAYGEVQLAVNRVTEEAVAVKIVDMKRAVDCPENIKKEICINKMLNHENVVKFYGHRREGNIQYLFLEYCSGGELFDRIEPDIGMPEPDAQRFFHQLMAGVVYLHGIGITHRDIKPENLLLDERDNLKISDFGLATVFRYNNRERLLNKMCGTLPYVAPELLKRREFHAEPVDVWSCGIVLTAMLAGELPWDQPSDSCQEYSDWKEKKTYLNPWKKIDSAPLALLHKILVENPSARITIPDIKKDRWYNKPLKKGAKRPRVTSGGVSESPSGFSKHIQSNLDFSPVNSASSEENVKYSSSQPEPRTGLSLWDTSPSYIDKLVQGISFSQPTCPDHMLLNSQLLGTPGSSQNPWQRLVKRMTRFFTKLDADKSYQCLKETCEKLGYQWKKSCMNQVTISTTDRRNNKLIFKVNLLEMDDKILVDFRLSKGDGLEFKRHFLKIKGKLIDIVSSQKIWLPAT
Method: 2 μL of kinase CHK1 (#V1941, Promega), 1 μL of compound diluted with buffer, and 2 μL of ATP substrate was successively added to a 384-well plate (final concentration of CHK1 was 1 ng/well, ATP was 10 μM). The positive control wells contained CHK1, ATP and DMSO whereas the negative control wells contained ATP, DMSO without enzyme. The mixtures were centrifuged at 1000 rpm for 1 minute and kept in darkness at room temperature for 1 hour to react. Then, 5 μL of ADP-Glo reagent was added to each well and incubated at room temperature for 40 minutes. At the end of incubation, 10 μL of kinase detection reagent was added to each well, and the relative chemiluminescence values (RLU) were measured on Varioskan® Flash (Thermo). The following calculation was performed: Inhibition rate %=(RLU of positive control−RLU of compound)/(RLU of positive control−RLU of negative control)×100. Data were analyzed using GraphPad Prism6.0 and fitted using the curve equation: Y=Bottom+(Top-Bottom)/(1+10^((Log IC50−X)*HillSlope)), and IC50 values were calculated.

[2] = tested on: human colon cancer cell LoVo; assay: Proliferation of LoVo cells, MTT assay; assay type: cell-based; conditions: 96 h, 4 days treatment, read-out: IC50 (inhibition of proliferation of LoVo)
Method: Newly revived LoVo cells (purchased from Shanghai Cell Institute) were cultured and passaged for at least three generations before use. Cells were used at 90% confluence for experiment. Cells were digested with trypsinase and centrifuged at 800 rpm for 5 minutes and the supernatant was discarded. The cell pellets were resuspended in fresh RPMI1640 medium and counted. Cells were seeded on 96-well cell culture plates at 5000 cells/well and incubated overnight at 37° C., 5% CO2. The stock solutions of the test substances (including the test compounds and the reference compound) were serially diluted to 8 concentrations with DMSO at a ratio of 1:3. 5 μL of each series diluted solutions was added to 120 μL of medium (diluted by 25 times) and mixed by shaking. […] The cell culture plates were returned to incubator at 37° C. and 5% CO2 for 4 days. At the end of treatment, the cell viability was determined by MTT colorimetric assay. Cell culture medium in each well was replaced by 100 μL/well of serum-free DMEM medium containing MTT (0.5 mg/mL), and the culture was continued for additional 4 hours. Medium was then discarded and 100 μL/well of DMSO was added.
(§1) Data was analyzed by GraphPad Prism 6.0. The inhibitory effects of compounds on cell proliferation were plotted based on cell viability vs. the logarithm of compound concentration. Cell viability %=(ODcompound−ODbackground)/(ODDMSO−ODbackground)×100.

[3] = tested on: human breast cancer cell HCC1806; assay: Proliferation of HCC1806 cells, MTT assay; assay type: cell-based; conditions: HCC1806, 72 h, 3 days treatment, read-out: IC50 (inhibition of proliferation of HCC1806)
Method: Newly revived HCC1806 cells (purchased from Guangzhou Genio) were cultured and passaged for at least three generations before use. Cells were used at 90% confluency for experiments. Cells were digested with trypsinase and centrifuged at 800 rpm for 5 minutes. The cell pellets were resuspended in fresh RPMI1640 medium and cells were counted. Cells were seeded on 96-well cell culture plates at 2000 cells/well and incubated overnight at 37° C., 5% CO2. The stock solutions of the test substances (including the test compounds and the reference compound) were serially diluted to 8 concentrations with DMSO at a ratio of 1:3. Five μL of each of the serially diluted solutions were added to 120 μL of medium (diluted by 25 times) and mixed by shaking. […] The cell culture plates were returned to incubator at 37° C., 5% CO2 for 3 days. At the end of treatment the cell viability was determined by MTT colorimetric assay. Cell culture medium in each well was replaced by 100 μL/well of serum-free fresh medium containing MTT (0.5 mg/mL), and the culture was continued for additional 4 hours.
as §1

Structure (SMILES) | inhibition at 0.01 µM [1] [%] | IC50 [2] [nM] | IC50 [3] [nM]
COc1cccc(OC[C@@H]2CNCCO2)c1-c1cc(Nc2cnc(C)cn2)n[nH]1 [Example 6, (S)—N-(5-(2-methoxy-6-(morpholin-2-ylmethoxy)phenyl)-1H-pyrazol-3-yl)-5-methylpyrazin-2-amine] | 85 | 192 | 187
COc1cccc(OC[C@H]2COCCN2)c1-c1cc(Nc2cnc(C#N)cn2)n[nH]1 [Example 7, (R)-5-((5-(2-methoxy-6-(morpholin-3-ylmethoxy)phenyl)-1H-pyrazol-3-yl)amino)pyrazine-2-carbonitrile] | 95 | 30.1 | 37.6
COc1cccc(OC[C@@H]2CNCCN2)c1-c1cc(Nc2cnc(C#N)cn2)n[nH]1 [Example 10, (S)-5-((5-(2-methoxy-6-(piperazin-2-ylmethoxy)phenyl)-1H-pyrazol-3-yl)amino)pyrazine-2-carbonitrile] | 95 | 23 | 24.8
COc1cccc(OC[C@@H]2CNCCN2C)c1-c1cc(Nc2cnc(C#N)cn2)n[nH]1 [Example 11, (S)-5-((5-(2-methoxy-6-((1-methylpiperazin-2-yl)methoxy)phenyl)-1H-pyrazol-3-yl)amino)pyrazine-2-carbonitrile] | 4.9 | > 1000 | > 1000
COc1cc(C(F)(F)F)cc(OC[C@@H]2CNCCO2)c1-c1cc(Nc2cnc(C#N)cn2)n[nH]1 [Example 19, (S)-5-((5-(2-methoxy-6-(morpholin-2-ylmethoxy)-4-(trifluoromethyl)phenyl)-1H-pyrazol-3-yl)amino)pyrazine-2-carbonitrile] | 91 | 31.2 | 31.4
N#Cc1cnc(Nc2cc(-c3c(OC[C@@H]4CNCCO4)cccc3OC(F)(F)F)[nH]n2)cn1 [Example 20, (S)-5-((5-(2-(morpholin-2-ylmethoxy)-6-(trifluoromethoxy)phenyl)-1H-pyrazol-3-yl)amino)pyrazine-2-carbonitrile] | 31 | > 1000 | 995
COc1cccc(OC[C@H]2CCCNC2)c1-c1cc(Nc2ccc(C#N)cn2)n[nH]1 [Example 24, (S)-6-((5-(2-methoxy-6-(piperidin-3-ylmethoxy)phenyl)-1H-pyrazol-3-yl)amino)nicotinonitrile] | 89 | 70.8 | 69.2
COc1cccc(OC[C@H]2CCCNC2)c1-c1cc(Nc2ccc(C#N)nn2)n[nH]1 [Example 25, (S)-6-((5-(2-methoxy-6-(piperidin-3-ylmethoxy)phenyl)-1H-pyrazol-3-yl)amino)pyridazine-3-carbonitrile] | 91 | 104 | 113
COc1cnc(Nc2cc(-c3c(OC)cccc3OC[C@H]3CCCNC3)[nH]n2)cn1 [Example 26, (S)-5-methoxy-N-(5-(2-methoxy-6-(piperidin-3-ylmethoxy)phenyl)-1H-pyrazol-3-yl)pyrazin-2-amine] | 93 | 103 | 118
CCc1cnc(Nc2cc(-c3c(OC)cccc3OC[C@H]3CCCNC3)[nH]n2)cn1 [Example 27, (S)-5-ethyl-N-(5-(2-methoxy-6-(piperidin-3-ylmethoxy)phenyl)-1H-pyrazol-3-yl)pyrazin-2-amine] | 95 | 83.8 | 129
COc1cccc(OC[C@H]2CCCNC2)c1-c1cc(Nc2ncc(C#N)nc2C)n[nH]1 [Example 29, (S)-5-((5-(2-methoxy-6-(piperidin-3-ylmethoxy)phenyl)-1H-pyrazol-3-yl)amino)-6-methylpyrazine-2-carbonitrile] | – | > 1000 | > 1000
COc1cc(F)cc(OCC2CNCCC2(C)C)c1-c1cc(Nc2cnc(C#N)cn2)n[nH]1 (stereo not shown) [Example 50, 5-((5-(2-((4,4-dimethylpiperidin-3-yl)methoxy)-4-fluoro-6-methoxyphenyl)-1H-pyrazol-3-yl)amino)pyrazine-2-carbonitrile] | – | 35.2 | 26.8
COc1cccc(OC[C@H]2CCCNC2)c1-c1[nH]nc(Nc2cnc(C#N)cn2)c1C [Example 51, (S)-5-((5-(2-methoxy-6-(piperidin-3-ylmethoxy)phenyl)-4-methyl-1H-pyrazol-3-yl)amino)pyrazine-2-carbonitrile] | – | > 1000 | > 1000
N#Cc1cnc(Nc2cc(-c3c(F)cc(Cl)cc3OC[C@@H]3CNCCO3)[nH]n2)cn1 [Example 58, (S)-5-((5-(4-chloro-2-fluoro-6-(morpholin-2-ylmethoxy)phenyl)-1H-pyrazol-3-yl)amino)pyrazine-2-carbonitrile] | – | 913 | > 1000
N#Cc1cnc(Nc2cc(-c3c(F)cc(Br)cc3OC[C@@H]3CNCCO3)[nH]n2)cn1 [Example 60, (S)-5-((5-(4-bromo-2-fluoro-6-(morpholin-2-ylmethoxy)phenyl)-1H-pyrazol-3-yl)amino)pyrazine-2-carbonitrile] | – | 554 | > 1000
Cc1cc(F)c(-c2cc(Nc3cnc(C#N)cn3)n[nH]2)c(OCC2CNC2)c1 [Example 61, 5-((5-(2-(azetidin-3-ylmethoxy)-6-fluoro-4-methylphenyl)-1H-pyrazol-3-yl)amino)pyrazine-2-carbonitrile] | – | 97 | 111
Cc1cc(F)c(-c2cc(Nc3cnc(C#N)cn3)n[nH]2)c(OC[C@@H]2CNCCO2)c1 [Example 64, (S)-5-((5-(2-fluoro-4-methyl-6-(morpholin-2-ylmethoxy)phenyl)-1H-pyrazol-3-yl)amino)pyrazine-2-carbonitrile] | – | 323 | 676
COc1cc(C)cc(OCC2CNC2)c1-c1cc(Nc2cnc(C#N)cn2)n[nH]1 [Example 72, 5-((5-(2-(azetidin-3-ylmethoxy)-6-methoxy-4-methylphenyl)-1H-pyrazol-3-yl)amino)pyrazine-2-carbonitrile] | – | 6 | 5.7
CCc1cc(OC)c(-c2cc(Nc3cnc(C#N)cn3)n[nH]2)c(OC[C@H]2CCCNC2)c1 [Example 75, (S)-5-((5-(4-ethyl-2-methoxy-6-(piperidin-3-ylmethoxy)phenyl)-1H-pyrazol-3-yl)amino)pyrazine-2-carbonitrile] | – | 3.2 | 3.1
COc1cc(F)cc(OC[C@@H]2CNCCS2)c1-c1cc(Nc2cnc(C#N)cn2)n[nH]1 [Example 77-A, (S)-5-((5-(4-fluoro-2-methoxy-6-(thiomorpholin-2-ylmethoxy)phenyl)-1H-pyrazol-3-yl)amino)pyrazine-2-carbonitrile] | – | 3.1 | 3.6
COc1cc(F)cc(OC[C@H]2CNCCS2)c1-c1cc(Nc2cnc(C#N)cn2)n[nH]1 [Example 77-B, (R)-5-((5-(4-fluoro-2-methoxy-6-(thiomorpholin-2-ylmethoxy)phenyl)-1H-pyrazol-3-yl)amino)pyrazine-2-carbonitrile] | – | 17.3 | 16.7
